{
  "source": "patent US12465609B2",
  "about": "“Methods of treating patients suffering from a disease condition or disorder that is associated with an increased glutamate level” (veriNOS operations GmbH, priority 2022, dated 2025)",
  "key": {"[1]": {"test_system": "nitric oxide synthase (NOS) / spinal NR2B-containing NMDA receptors", "conditions": "rats, cited from earlier work"}, "plasma glutamate": {"test_system": "plasma glutamate", "conditions": "neurosurgical patients, anesthesia; cited from earlier work"}, "blood glutamate levels": {"test_system": "blood glutamate levels", "conditions": "rat; cited from earlier work"}, "iNOS": {"target": "iNOS (Homo sapiens, UniProt P35228)", "assay": "In vitro iNOS inhibition", "type": "biochemical"}, "[2]": {"assay": "Plasma pharmacokinetics after single rectal administration of VAS203 gel in rabbits", "type": "in vivo", "description": "In this Example, VAS203 was formulated as a gel at a concentration of 450 mg VAS203/ml for single rectal administration in rabbits. This formulation of VAS203 as a gel (450 mg/ml) was filled in 2 ml syringes pact in foil with an oxygen absorber.\nSix rabbits were dosed with 1.5 ml of VAS203 gel (corresponding to a dosage of about 200 mg VAS203/kg body weight). Blood collection was carried out at pre-dose, 10 min, 20 min, 40 min, 1 h, 2 h, 3 h, 4 h, 5 h, 6 h, and 20-26 h after rectal administration. The whole blood samples (ca. 1-2 ml sufficient to obtain approx. 0.3 mL EDTA plasma/animal/sampling time), were collected into pre-cooled EDTA vials. To stabilise the blood samples, 1 mg Dithioerythritol (DTE) was added to approx. 1 mL blood. Within 15 minutes of blood collection the samples were centrifuged at 4° C. for 10 minutes. The plasma was transferred to vials and immediately frozen and stored at −80° C. for analysis.\nThe plasma concentrations (in μg/L) of VAS203, 7,8-Dihydroaminobiopterin (VAS3384, ABH2, the compound of formula (II) as shown in here) and Aminobiopterin (VAS3382, AB) were measured by liquid chromatography mass spectrometry (LC-MS)."}, "[3]": {"test_system": "C57 BL/6 mice, controlled cortical impact (CCI) model", "assay": "Controlled cortical impact (CCI) model in mice, intracranial pressure (ICP)", "type": "in vivo", "conditions": "for therapeutic activity of metabolites of VAS203: mouse, in vivo", "source_text": "The primary objective of this experiment was the characterization of the intracranial pressure (ICP) reduction by VAS3384 in the controlled cortical impact (CCI) model in mice. The secondary objective was characterization of the neuroprotective effect (reduction of the lesion volume) of VAS3384 in the controlled cortical impact model in mice.\n• Test compound A • Denomination: VAS 3384 • Active agent: 4-Amino-4-desoxy-7,8-dihydrobiopterin-dihydrochloride, obtained from Schircks Laboratories, Bauma, Switzerland • Detailed composition: VAS 3384 dissolved in sodium phosphate buffer (PBS) pH 7.4 • Formulation method: 15 mg of the test compound (VAS 3384) are dissolved in 500 μl PBS, pH 7.4. The solution is neutralized with 72 μl 1 N NaOH and filled up with 428 μl water (check pH). • Final concentration of active agent: 15 mg/ml • Appearance: yellow, clear solution • Storage (solid test compound): −20° C. • Dose applied: 560 mg/kg or 37.3 ml/kg • Way of administration: intravenous injection/infusion • Negative control • Denomination: sodium phosphate buffer (PBS) • Active agent: none • Detailed composition: Na2HPO4, NaH2PO4, 100 mM pH 7.4 • Formulation method: ready for use • Final concentration of active agent: not applicable • Appearance: colourless, clear solution • Expiration date: 3 months after preparation • Volume applied: 37.3 ml/kg • Way of administration: intravenous injection/infusion Experimental Procedure\nThe animals (C57 BL/6 mice), under Dormicum/Methidomidin/Fentanyl-narcosis were fixed in a stereo tactical frame and the scalp was opened with a cut along the median. The skull bone\nwas laid open and disinfected with H2O2. A hole of approx. 1.2 mm diameter was then drilled into the skull (Bregma 0.4-0.4 mm). The ICP-probe was introduced through this hole. The V. jugularis was be laid open and a catheter introduced. This catheter was introduced in the neck subcutaneously and fixed on the cap of the cage with a protective spiral of metal. This setup permitted an infusion in awake animals. The skull was opened above of the right cortex and mechanically traumatized (CCI model). The skullcap was then closed with the removed bone.\nMice 1-9: 10 minutes after the trauma the animals got an intravenous bolus injection of 20 mg/kg VAS 3384 (=1.33 ml/kg) followed by an infusion of 1.5 mg/kg/min (=100 μl/kg/min) VAS 3384 over six hours to maintain the dose. After six hours, after termination of the infusion, and after 24 hours the ICP of the animals was measured. After 24 hours the animals were sacrificed, the brains dissected and the lesion volume determined by Nissl's method.\nMice 10-18: 10 minutes after the trauma the animals received an intravenous bolus injection of 1.33 ml/kg PBS followed by an infusion of 100 μl/kg/min PBS over six hours. After six hours, after the termination of the infusion, and after 24 hours the ICP of the animals was measured.\nAt the end of the observation period animals were sacrificed by cervical dislocation in deep halothane anaesthesia. The brains were carefully removed, frozen in powdered dry ice, and stored at −20° C. until further use. Ten μm coronal sections were prepared every 500 μm on a cryostat (CryoStar HM 560, Microm, Walldorf, Germany) and stained with cresyl violet. Sections were photographed with a digital camera system. The contusion area, the area of the non-traumatized tissue of the ipsilateral hemisphere, and the area of the contralateral hemisphere were determined on the digitized images with a standard image analysis software (Optimate 6.51, Media Cybernetics, Silver Spring, MD, USA) by an investigator blinded to the treatment of the animals. In order to correct for the swelling of contused tissue, the contusion area was calculated by subtracting the area of the non-traumatized tissue of the ipsilateral hemisphere from the area of the contralateral hemisphere. […]"}, "[4]": {"assay": "Exposure control (pharmacokinetics) in NOSTRA III patients", "type": "in vivo, human", "conditions": "TBI patients; for mean absolute concentration 12 hours after end of infusion / mean absolute concentration at the end of the infusion: Ronopterin 17 mg/kg infused for 48 hours", "description": "An exposure control was performed with samples collected after end of infusion and 12 hours after end of infusion."}, "[5]": {"conditions": "rabbits, single rectal VAS203 gel, about 200 mg/kg"}},
  "data": [
    {"molecule": "O=[N+]([O-])c1cccc2cn[nH]c12", "note": "[7-nitroindazole]", "values": [
      {"measurement": "oxaliplatin-induced pain behavior", "setting": "[1]", "result": "significantly suppressed"}
    ]},
    {"molecule": "FC(F)OC(Cl)C(F)(F)F", "note": "(stereo not drawn) [Isoflurane]", "values": [
      {"measurement": "plasma glutamate", "setting": "plasma glutamate", "result": "significantly increase"}
    ]},
    {"molecule": "COC(=O)[C@@H](N)CCCNC(=N)N[N+](=O)[O-]", "note": "[L-NAME]", "values": [
      {"measurement": "oxaliplatin-induced pain behavior", "setting": "[1]", "result": "significantly suppressed"}
    ]},
    {"molecule": "N[C@@H](Cc1cc(I)c(Oc2cc(I)c(O)c(I)c2)c(I)c1)C(=O)O", "note": "[L-thyroxine]", "values": [
      {"measurement": "blood glutamate levels", "setting": "blood glutamate levels", "result": "increased"}
    ]},
    {"molecule": "C[C@@H](CN1CCC(Cc2ccccc2)CC1)[C@@H](O)c1ccc(O)cc1", "note": "[Ro25-6981]", "values": [
      {"measurement": "oxaliplatin-increased intensity of NADPH diaphorase staining in the superficial layer of spinal dorsal horn", "setting": "[1]; intrathecal injection", "result": "reversed"}
    ]},
    {"molecule": "CC(O)C(O)C1=Nc2c(N)nc(N)nc2NC1", "note": "[VAS3384, 4-Amino-(6R,S)-7,8-dihydro-L-biopterin]", "values": [
      {"measurement": "IC50", "setting": "iNOS", "result": 12, "unit": "µM"},
      {"measurement": "potency to inhibit the i-NOS in comparison to VAS203", "setting": "iNOS", "result": "about ten times less potency"},
      {"measurement": "half-life", "setting": "[2]; rabbit, in vivo, 200 mg/kg", "result": "~1.33", "unit": "h"},
      {"measurement": "ICP after 6 hours", "setting": "[3]; CCI mice, i.v. infusion of 560 mg/kg over 6 h, mean +/- SD, n=9/group, placebo 14.1+/−1.8, p=0.0005", "result": "10.4+/−1.9"},
      {"measurement": "ICP after 24 hours", "setting": "[3]; CCI mice, i.v. infusion of 560 mg/kg over 6 h, placebo 10.7+/−2.3, non-significant", "result": "10.3+/−1.7"},
      {"measurement": "reduction of the increased ICP compared with the placebo group", "setting": "[3]; infusion of 560 mg/kg for six hours, starting 10 minutes after CCI", "result": "significantly reduction of the increased ICP"},
      {"measurement": "therapeutic activity of metabolites of VAS203", "setting": "[3]", "result": "still active"},
      {"measurement": "elimination 12 hours after end of infusion", "setting": "[4]", "result": 56, "unit": "%"},
      {"measurement": "mean absolute concentration 12 hours after end of infusion", "setting": "[4]", "result": 476, "unit": "ng/mL"},
      {"measurement": "mean absolute concentration at the end of the infusion", "setting": "[4]", "result": 1071, "unit": "ng/mL"}
    ]},
    {"molecule": "C[C@H](O)[C@@H](O)c1cnc2nc(N)nc(N)c2n1", "note": "[aminobiopterin, Aminobiopterin]", "values": [
      {"measurement": "elimination half-life", "setting": "[2]; [5]", "result": "approximately 4 hours"},
      {"measurement": "time to reach plateau of plasma concentration", "setting": "[2]; [5]", "result": "approx. 50 minutes"},
      {"measurement": "therapeutic activity of metabolites of VAS203", "setting": "[3]", "result": "no therapeutic activity"},
      {"measurement": "mean absolute concentration 12 hours after end of infusion", "setting": "[4]", "result": 37, "unit": "ng/mL"},
      {"measurement": "mean absolute concentration at the end of the infusion", "setting": "[4]", "result": 52, "unit": "ng/mL"}
    ]},
    {"molecule": "CC(C)c1cccc(C(C)C)c1O", "note": "[propofol]", "values": [
      {"measurement": "plasma glutamate", "setting": "plasma glutamate", "result": "significantly increase"}
    ]}
  ]
}
